Reference: patent publication US9512178B2, “Neurogenic brain-derived neurotrophic factor peptides” (Research Foundation for Mental Hygiene, Inc., priority 2012, dated 2016)
Entries after “also recorded” stand apart in the source; their conditions may differ.

Key:
[1] = test system: E18 primary hippocampal neurons; test: Western blots of neuronal markers, densitometry; format: cell-based, mouse; settings: 5 days
Experimental: (§1) Following treatment in 6-well plates, cells were washed 2× in glucose buffered saline, GBS (5.4 mM KCl, 138 mM NaCl, 22 mM glucose, and 2 mM Na—KPO pH 7.2), and then lysed by 5 min incubation on ice in 100 or 150 μl of ice-cold RIPA buffer (PBS, 1% w/v NP-40 from Fisher Scientific, 0.1% w/v SDS, and 0.5% w/v sodium desoxycholate) containing 1 mM AEBSF (Gold Biotechnology, St. Louis, Mo., USA), 10 μg/ml aprotinin (Sigma-Aldrich, St. Louis, Mo., USA), and 20 μg/ml of leupeptin and pepstatin (US Biochemicals, Cleveland, Ohio, USA), and phosphatase inhibitors: NaF, Na orthovanadate, (3-glycerophosphate, and microcystein (Sigma-Aldrich, St. Louis, Mo., USA). Extracts were prepared by collecting and pooling a minimum of 2 wells by scraping, and lysates were centrifuged at 20,000×g for 10 min at 4° C. Protein concentration of each cell lysate was determined using the BCA kit (Thermo Scientific, Rockford, Ill., USA). The lysates (7.5-20 μg total protein) were separated on 10% SDS-PAGE gels (except for BDNF where 12% gels were employed) and transferred to 0.45 μm PVDF membrane (Pall, Pensacola, Fla., USA) for probing with antibodies as noted. Blots were blocked for 1 hr at 37° C. in 1×TBST (0.05% Tween 20 in TBS) containing 5% w/v blotting grade dry milk (Bio-rad, Hercules, Calif., USA), incubated in primary antibody overnight in blocking buffer at 4° C., washed 3×10 min in TBST at room temperature, followed by incubation with secondary antibody, i.e., peroxidase-conjugated anti-mouse or anti rabbit IgG (Jackson ImmunoResearch Laboratories, West Grove, Pa., USA) diluted in blocking buffer. Blots were washed 3×10 min in TBST and immunoreactive protein bands were visualized with enhanced chemiluminescence (ECL) reagents (Pierce, Rockford, Ill., USA). The ECL films of the blots were scanned and analyzed using Multi Gauge software version 3.0 (Fujifilm, Tokyo, Japan).
(§2) The following primary antibodies were used: rabbit polyclonal anti-NFM (1:1000; Chemicon/Millipore, Billerica, Mass., USA); mouse monoclonal anti-NeuN, clone A60 (1:500; Millipore, Billerica, Mass., USA); rabbit polyclonal anti-Tuj-1, (3—III-tubulin (Covance; 1:800, Emeryville, Calif., USA); mouse monoclonal SMI 52 to the adult isoforms of MAP-2, MAP2a,b (1:1000; Covance, Emeryvilly, Calif., USA); rabbit polyclonal anti-Synapsin I (1:2000; Stressgen, Farmingdale, N.Y., USA); rabbit monoclonal anti-PSD95 (1:1000; Cell signaling, Danvers, Mass., USA); anti tau 92e (1:10000); mouse monoclonal anti-BDNF (1:1000; Calbiochem, Gibbstown, N.J., USA); rabbit polyclonal anti-TrkB (total) (1:500; Santa Cruz Biotechnology, Santa Cruz, Calif., USA); rabbit polyclonal anti-pTrkB (Tyr706) (1:400; Santa Cruz Biotechnology, Santa Cruz, Calif., USA), TrkC (1:1000; Cruz Biotechnology, Santa Cruz, Calif., USA); and pTrkY490 (1:500; Upstate USA Inc., Charlottesville, Va., USA). For loading control, the blots were developed with rabbit polyclonal antibody to GAPDH (1:2000; Santa Cruz Biotechnology, Santa Cruz, Calif., USA).
To biochemically study the effect of BDNF peptides in inducing expression of neuronal markers, protein samples were recovered from cells treated with peptides B-5, B-4, B-3, or vehicle for five days. As a positive control, protein samples were collected from cells treated with BDNF at 20 ng/ml (0.79 nM) or 100 ng/ml (3.95 nM) (FIG. 3D, E). Western blots of the cell lysates were developed with antibodies to Synapsin I (presynaptic marker), PSD95 (postsynaptic marker), NeuN (late neuronal marker), NFM (early neuronal marker), MAP2 (dendritic marker), 0-IIItubulin (early neuronal marker), and tau 92e (axonal marker).

[2] = test system: primary E18 hippocampal cells; test: Rescue of H2O2-induced neurotoxicity (LDH assay); format: cell-based, mouse
Experimental: Evaluation of cell death and cell viability was performed using the LDH kit (Promega, Madison Wis., USA), following manufactures instructions. Percentages of cell death and cell viability were plotted separately.
In order to evaluate the potential neuroprotective effect of BDNF peptides, the primary E18 hippocampal cells were challenged with 0, 60, 80 and 100 μM H2O2 for 6 hours, and then cells were washed with culture medium and fresh culture medium was added containing the peptides B-5 or B-3 or BDNF or BDNF plus B-3 (see FIGS. 4A and 4B). After 24 hours, the cell viability was assayed by the LDH method.

BDNF = BDNF expression, Western blot, 5 days treatment; format: cell-based, mouse
Experimental: as §1, §2
To investigate the molecular mechanism by which the BDNF peptides promoted neurogenic/neurotrophic activities, the hippocampal primary cultured neurons were treated with the peptides or BDNF for five days and compared with the control medium treated cells.

TrkB receptor = biological target: T1, TrkB receptor (Homo sapiens, UniProt Q16620); test: Competition with BDNF for activation (pTrkB) of TrkB in NIH 3T3 cells stably expressing TrkB; format: cell-based; settings: 0.05 μM to 10 μM with BDNF 1 ng/ml (0.04 nM), 15 min; dose-dependent
T1 construct: host or cells: NIH 3T3 fibroblasts, G418 selection
T1 sequence (Q16620 32-822): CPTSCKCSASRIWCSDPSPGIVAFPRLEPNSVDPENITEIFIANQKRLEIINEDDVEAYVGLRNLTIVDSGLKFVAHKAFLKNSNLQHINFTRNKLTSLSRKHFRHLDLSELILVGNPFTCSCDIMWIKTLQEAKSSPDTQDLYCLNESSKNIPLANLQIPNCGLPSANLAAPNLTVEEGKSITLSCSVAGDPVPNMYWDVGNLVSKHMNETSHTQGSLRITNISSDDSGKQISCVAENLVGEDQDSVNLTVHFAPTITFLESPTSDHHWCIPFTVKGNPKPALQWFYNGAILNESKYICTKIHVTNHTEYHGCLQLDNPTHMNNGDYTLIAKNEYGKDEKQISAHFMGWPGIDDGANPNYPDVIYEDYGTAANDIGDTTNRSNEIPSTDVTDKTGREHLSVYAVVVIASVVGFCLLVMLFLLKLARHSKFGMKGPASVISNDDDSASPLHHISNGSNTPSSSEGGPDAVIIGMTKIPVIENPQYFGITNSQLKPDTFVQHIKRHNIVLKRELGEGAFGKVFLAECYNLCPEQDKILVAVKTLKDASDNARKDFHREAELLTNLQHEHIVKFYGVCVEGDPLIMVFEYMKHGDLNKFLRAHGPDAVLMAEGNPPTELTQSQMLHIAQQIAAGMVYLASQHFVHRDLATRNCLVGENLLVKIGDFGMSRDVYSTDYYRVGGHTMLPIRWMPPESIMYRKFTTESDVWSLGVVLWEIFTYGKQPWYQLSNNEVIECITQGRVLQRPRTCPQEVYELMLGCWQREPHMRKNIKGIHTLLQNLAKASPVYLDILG
Experimental: To study the activation of the TrkB receptor with BDNF and/or with the peptides, NIH 3T3 cells were used, stably transfected with the TrkB receptor (obtained from Montreal Neurological Institute, Montreal, Quábec, Canada). The cell culture medium used for this cell line was: DMEM-high glucose, 10 percent normal calf serum, 1 percent glutamax, 1 percent sodium pyruvate, 1 percent penicillin-streptomycin; supplemented with the selection antibiotic G418 in a final concentration of 100 μg/ml (to guaranty the stable expression of the Trkb transgene). All Medium components were purchase from Gibco Life Technologies, Invitrogen, Grand Island, N.Y., USA.
To evaluate a possible competitive role of the peptides in the activation of TrkB receptor by BDNF, a fibroblast (NIH 3T3) cell line stably expressing the TrkB receptor was used. Cells were vehicle-treated or treated with BDNF 1 ng/ml (0.04 nM) in the presence or absence of 0.05 μM to 10 μM B-5 or B-3 for 15 min (FIG. 7A). […] As observed in primary neuronal cultures (shown in FIGS. 5C and D), the treatment with the peptides alone for 15 min induced a weak but significant activation of TrkB receptor when compared to control (ANOVA, p<0.001).

TrkC = biological target: T2, TrkC (Homo sapiens, UniProt Q16288); test: Trk phosphorylation and TrkC expression in TrkC stably-expressing NIH-3T3 cells; format: cell-based; settings: for expression of TrkC: 1 μM; for activation of TrkC receptor: peptides 1 μM
T2 construct: expressed in transfected cells; host or cells: NIH-3T3 fibroblasts
T2 sequence (Q16288 32-839, species assumed): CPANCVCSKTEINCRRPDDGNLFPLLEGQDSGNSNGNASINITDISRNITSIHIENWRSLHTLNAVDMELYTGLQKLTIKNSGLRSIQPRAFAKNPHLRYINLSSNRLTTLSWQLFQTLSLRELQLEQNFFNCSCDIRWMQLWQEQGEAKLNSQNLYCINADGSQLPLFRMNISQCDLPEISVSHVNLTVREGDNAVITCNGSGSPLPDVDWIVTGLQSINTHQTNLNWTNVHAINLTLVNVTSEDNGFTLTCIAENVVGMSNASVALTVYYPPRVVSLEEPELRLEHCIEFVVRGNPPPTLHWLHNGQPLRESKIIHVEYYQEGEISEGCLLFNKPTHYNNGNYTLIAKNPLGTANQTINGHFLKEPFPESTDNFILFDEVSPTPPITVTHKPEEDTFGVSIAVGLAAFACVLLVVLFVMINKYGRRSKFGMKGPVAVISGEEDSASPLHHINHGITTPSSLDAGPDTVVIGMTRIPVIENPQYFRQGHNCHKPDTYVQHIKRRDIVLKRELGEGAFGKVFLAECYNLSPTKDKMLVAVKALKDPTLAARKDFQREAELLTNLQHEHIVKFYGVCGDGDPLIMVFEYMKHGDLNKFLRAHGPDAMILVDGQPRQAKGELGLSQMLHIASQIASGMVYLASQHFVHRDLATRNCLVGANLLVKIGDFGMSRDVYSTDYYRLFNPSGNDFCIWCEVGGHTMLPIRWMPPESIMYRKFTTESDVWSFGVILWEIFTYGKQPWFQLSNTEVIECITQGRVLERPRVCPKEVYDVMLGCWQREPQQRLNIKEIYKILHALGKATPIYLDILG

[3] = 80 μM H2O2 6 h, then treatment 24 h

Substance	MAP2 expression (Western blot) ([1]; 0.1 μM)	NFM expression (Western blot) ([1]; 0.1 μM)	expression of NeuN (Western blot) ([1]; 1 μM)	expression of PSD95 (Western blot) ([1]; 1 μM)	levels of 0-IIItubulin (Western blot) ([1]; 1 μM, vs vehicle)	level of tau (92e antibody, Western blot) [1]	cell viability (LDH) ([2]; 60 μM H2O2 6 h, then treatment 24 h)	cell death (LDH) [2, 3]	cell viability (LDH) [2, 3]	expression of BDNF (Western blot) (BDNF; 0.1 μM)	expression of BDNF (Western blot) (BDNF; 1 μM)	expression of BDNF (Western blot) (BDNF; vs control medium)	competitive inhibition of the activation of TrkB receptor by BDNF (TrkB receptor)	expression of TrkC (TrkC)	activation of TrkC receptor (TrkC)	expression of NeuN (Western blot) ([1]; 0.1 μM)	potentiation of the neuroprotective effect of BDNF ([2]; after H2O2 exposure, combined with BDNF)	neuroprotective effect of the peptide alone ([2]; after H2O2 exposure, without BDNF)
Ac-I-K-R-G-CONH2 [Peptide B-5]	increased significantly	increased NFM expression	increased the expression of NeuN	significant increment	this increase was not significant	Neither BNDF nor peptides B-3, B-4 or B-5 had any significant effect	significantly increased the cell viability	significantly reduced cell death; also recorded: moderate effect in reducing the percentage of cell death	significantly increased the cell viability	strongest induction	lost	induced the expression of BDNF	significant competitive inhibition	neither BDNF (20 ng/mL) nor peptides B-5 (1 μM) and B-3 (1 μM) were able to modify the expression of TrkC	neither the peptides nor BDNF were able to activate this receptor			
Ac-S-KKR-CONH2 [Peptide B-3]			increased the expression of NeuN			Neither BNDF nor peptides B-3, B-4 or B-5 had any significant effect				not at 0.1 μM	induced an increase	induced the expression of BDNF	significant competitive inhibition	neither BDNF (20 ng/mL) nor peptides B-5 (1 μM) and B-3 (1 μM) were able to modify the expression of TrkC	neither the peptides nor BDNF were able to activate this receptor	increased the expression of NeuN	significantly potentiated; also recorded: potentiates the neuroprotective effect of BDNF	not sufficient to exert a significant effect
